Assay results as given in patent publication US20260174875A1 (Novo Nordisk A/S, priority 2023, published 2026).
Numbered stars: 1 amine (or outer) side, 2 acyl side, 3 side chain; on linkers, the order of the positions; unused ones are H or OH. Square brackets hold non-standard residues; d marks the D form. Side chains are listed from the residue outwards. * marks the point of attachment. C20 diacid = O=C(O)CCCCCCCCCCCCCCCCCCC(=O)*; C18 diacid = O=C(O)CCCCCCCCCCCCCCCCC(=O)*; C16 diacid = O=C(O)CCCCCCCCCCCCCCC(=O)*; γGlu = O=C(O)[C@H](CCC(=O)[*:2])N[*:1]; AEEA = NCCOCCOCC(=O)O; Aib = CC(C)(N)C(=O)O

target: T1, human GLP-1 receptor (hGLP-1R) (Homo sapiens, UniProt P43220); assay: GLP-1 receptor assay, method A (CRE-luciferase reporter, BHK cells); format: cell-based; settings: hGLP-1R Potency, 1% HSA, EC50, method A, in the presence of 1% HSA
T1 construct: expressed in transfected cells
Protocol: (§1) To assess how the activation of the receptors is potentially influenced by the presence of human serum albumin (HSA), the in vitro assays were performed in the absence of HSA and presence of 1% (w/v) HSA.
Cells at approximately 80-90% confluence were washed once in PBS (Gibco 14190-094) and loosened from the cell flasks with Versene (Gibco, 15040-033). […] Cells were aliquoted and stored at −180° C. until use.
(§2) The assay buffer consisted of DMEM without phenol red (Gibco, 11880-028) supplemented with 1× GlutaMAX (Gibco, 35050-038), 10 mM HEPES (Gibco, 15630-056), 1% (w/v) ovalbumin (Sigma, A5503) and 0.1% (v/v) Pluronic F-68 (Gibco, 24040-032) either with HSA or without HSA (Sigma, A9511).
Frozen stocks of hGLP-1R BHK CRE-Luc cells were thawed in a 37° C. water bath, washed once in PBS (Gibco 14190-094) and diluted to 1.5×10^6 (1.5E+6) cells/mL in assay buffer with or without 2% (w/v) HSA (Sigma, A9511). […] The assay plates were incubated for 3 hours at 37° C. in 5% CO2, left at room temperature for 5 minutes after which 100 μL steadylite Plus™ (PerkinElmer/Revvity, 6066759) was added to each well. Plates were sealed and incubated at room temperature with gentle shaking for 30 minutes while protected from light. Luminescence was detected on a luminescence plate reader e.g., a Synergy 2 (BioTek).

T1 sequence (P43220 24-463): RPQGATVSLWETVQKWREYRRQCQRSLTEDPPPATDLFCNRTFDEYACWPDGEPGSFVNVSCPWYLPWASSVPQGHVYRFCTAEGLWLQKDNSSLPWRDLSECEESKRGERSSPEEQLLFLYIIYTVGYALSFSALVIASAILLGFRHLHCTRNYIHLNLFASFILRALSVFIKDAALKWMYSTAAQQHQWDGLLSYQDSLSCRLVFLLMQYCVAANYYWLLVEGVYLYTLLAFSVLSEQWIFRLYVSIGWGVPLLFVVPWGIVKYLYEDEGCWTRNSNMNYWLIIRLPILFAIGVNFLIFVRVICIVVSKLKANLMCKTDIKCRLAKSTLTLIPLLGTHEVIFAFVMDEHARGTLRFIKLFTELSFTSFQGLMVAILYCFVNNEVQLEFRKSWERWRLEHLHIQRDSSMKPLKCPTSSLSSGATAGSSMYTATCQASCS

Substance	EC50 [nM]
Y[Aib]EGTFTSDYSILLEEQAAREFIEWLLAGGPSGGEASHLSTAQTQRLSAELHK([AEEA-AEEA-γGlu-C18 diacid])LATLPRTETGSGSP-NH2 [Compound 74]	0.141
Y[Aib]EGTFTSDYSILLEEQAAREFIEWLLAGGPSGGGGEASHLSTAQTQRLSAELHK([AEEA-AEEA-γGlu-C20 diacid])LATLPRTETGSGSP-NH2 [Compound 96]	0.162

same assay, conditions: method A, absence of HSA; read-out: hGLP-1R Potency, no HSA, EC50

Substance	EC50 [nM]
Y[Aib]EGTFTSDYSILLEEQAAREFIEWLLAGGPSGGEASHLSTAQTQRLSAELHK([AEEA-AEEA-γGlu-C18 diacid])LATLPRTETGSGSP-NH2 [Compound 74]	0.0298
Y[Aib]EGTFTSDYSILLEEQAAREFIEWLLAGGPSGGGGEASHLSTAQTQRLSAELHK([AEEA-AEEA-γGlu-C20 diacid])LATLPRTETGSGSP-NH2 [Compound 96]	0.0168
Y[Aib]EGTFTSDYSILLEEQAAREFIEWLLAGGPSK([AEEA-AEEA-γGlu-C16 diacid])GASELSTAALGRLSAELHRLATLPRTETGSGSP-NH2 [Compound 20]	0.0406
Y[Aib]EGTFTSDYSILLEEQAAREFIEWLLAGGPSK([AEEA-AEEA-γGlu-C18 diacid])GAEASELSTAALGRLSAELHELATLPRTETGSGSP-NH2 [Compound 32]	0.0276

target: T2, human GIP receptor (hGIPR) (Homo sapiens, UniProt P48546); assay: GIP receptor assay, method A (CRE-luciferase reporter, BHK cells); format: cell-based; settings: hGIPR Potency, 1% HSA, EC50, method A, in the presence of 1% HSA
T2 construct: expressed in transfected cells
T2 sequence (P48546 22-466): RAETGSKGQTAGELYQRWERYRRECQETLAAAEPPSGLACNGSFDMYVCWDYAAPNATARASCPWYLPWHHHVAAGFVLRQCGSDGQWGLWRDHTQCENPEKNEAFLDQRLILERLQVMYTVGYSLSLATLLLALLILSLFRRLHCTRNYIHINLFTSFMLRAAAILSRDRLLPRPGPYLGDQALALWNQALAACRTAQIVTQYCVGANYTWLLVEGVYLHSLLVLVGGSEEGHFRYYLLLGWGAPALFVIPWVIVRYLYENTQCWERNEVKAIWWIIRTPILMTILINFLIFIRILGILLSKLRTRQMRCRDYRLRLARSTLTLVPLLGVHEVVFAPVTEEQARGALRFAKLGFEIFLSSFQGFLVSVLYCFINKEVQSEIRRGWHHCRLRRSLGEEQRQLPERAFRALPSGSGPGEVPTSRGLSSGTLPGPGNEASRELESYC
Protocol: To assess how the activation of the receptors is potentially influenced by the presence of human serum albumin (HSA), the in vitro assays were performed in the absence of HSA and presence of 1% (w/v) HSA. Unless stated otherwise the reference to the “GIP receptor assay as described in Example 4” throughout the specification shall refer to the described herein assay procedure method A (hGIPR assay) in the absence of HSA.
Activation of the human GIP receptor leads to increased intra-cellular concentrations of cyclic AMP (cAMP) and the consequent transcription activation from promoters containing multiple copies of the cAMP response element (CRE). It is thus possible to measure GIP receptor activity using a CRE-luciferase reporter gene introduced into Baby Hamster Kidney (BHK) cells co-expressing the human GIP receptor.
Cells at about 80-90% confluency were washed once with PBS (Gibco 14190-094) and detached from the cell flasks with Versene (Gibco, 15040-066). After centrifugation, the cells were counted, resuspended and diluted to approximately 1.5-3.0×10^6 (1.5E+6 to 3.0E+6) cells/mL in Recovery Cell Culture Freezing Medium (Gibco, 12648-010) and stored at −180° C. in suitable aliquots until use.
as §2
On the day before the assay hGIPR BHK Cre-Luc cells were thawed and plated out in 96 well Culture Plates (PerkinElmer/Revvity, 6005680) at 5.0×10^3 (5.0E+3) cells/well in growth medium as described above. The plates were then incubated for 21-23 hours at 37° C. with 5% CO2. On the day of the assay GLP-1-/GIP-/amylin-receptor tri-agonists or reference compounds were diluted in assay buffer using a 7-point, 10-fold titration plus a blank (absence of compound). Each compound was diluted and tested in duplicates in each experiment. In the plates containing the cells the growth medium was removed, and cells were washed twice with 100 μL PBS (Gibco 14190-094). 50 μL of the test compound dilutions were added to the plates containing cells preceded by 50 μL assay buffer with or without 2% (w/v) HSA (Sigma, A9511). The cell plates were incubated for 3 hours in a 5% CO2 incubator at 37° C. The plates were then transferred to room temperature followed by addition of 100 μL steadylite Plus™ (PerkinElmer/Revvity, 6066759). The plates were sealed and shaken for 30 minutes at room temperature while protected from light. Finally, luminescence (as an indicator of receptor activation) was measured on a Mithras reader (Berthold Technologies, DE). The EC50-values [pM] were calculated by non-linear curve fitting applying a four-parameter logistic model (Hill slope=“shared value for all datasets”) using GraphPad Prism (GraphPad Software, Boston, MA, USA).

Substance	EC50 [nM]
Y[Aib]EGTFTSDYSILLEEQAAREFIEWLLAGGPSGGEASHLSTAQTQRLSAELHK([AEEA-AEEA-γGlu-C18 diacid])LATLPRTETGSGSP-NH2 [Compound 74]	0.0187
Y[Aib]EGTFTSDYSILLEEQAAREFIEWLLAGGPSGGGGEASHLSTAQTQRLSAELHK([AEEA-AEEA-γGlu-C20 diacid])LATLPRTETGSGSP-NH2 [Compound 96]	0.03

same assay, conditions: method A, absence of HSA; read-out: hGIPR Potency, no HSA, EC50

Substance	EC50 [nM]
Y[Aib]EGTFTSDYSILLEEQAAREFIEWLLAGGPSGGEASHLSTAQTQRLSAELHK([AEEA-AEEA-γGlu-C18 diacid])LATLPRTETGSGSP-NH2 [Compound 74]	0.00251
Y[Aib]EGTFTSDYSILLEEQAAREFIEWLLAGGPSGGGGEASHLSTAQTQRLSAELHK([AEEA-AEEA-γGlu-C20 diacid])LATLPRTETGSGSP-NH2 [Compound 96]	0.00362
Y[Aib]EGTFTSDYSILLEEQAAREFIEWLLAGGPSK([AEEA-AEEA-γGlu-C16 diacid])GASELSTAALGRLSAELHRLATLPRTETGSGSP-NH2 [Compound 20]	0.00482
Y[Aib]EGTFTSDYSILLEEQAAREFIEWLLAGGPSK([AEEA-AEEA-γGlu-C18 diacid])GAEASELSTAALGRLSAELHELATLPRTETGSGSP-NH2 [Compound 32]	0.00809

target: T3, human amylin receptor (hAMYR3) (Homo sapiens, UniProt O60896+P30988); assay: Amylin receptor assay, method A (CRE-luciferase reporter, BHK cells); format: cell-based; settings: hAMYR3 Potency, 1% HSA, EC50, method A, in the presence of 1% HSA
T3 construct: host or cells: BHK cells (Hollex-1 line expressing hCTR(a) and CRE-Luc), further transfected with human RAMP3
Protocol: as §1
It is thus possible to measure hAMYR3 activity using a CRE-luciferase reporter gene introduced into Baby Hamster Kidney (BHK) cells co-expressing the hAMYR3.
The cell line was further transfected with human receptor modifying protein 3 (RAMP3) using standard methods.
After centrifugation, the cell pellet was resuspended and diluted to approximately 2.5-4.0×10^6 (2.5E+6 to 4.0E+6) cells/mL in Recovery™ Cell Culture Freezing Medium (Gibco, 12648-010). Cells were aliquoted and stored at −180° C. until use.
as §2, with “15630-056) and” for “15630-056),”, “either with or without” for “and”, “24040-032) and” for “24040-032)”, “with” for “with HSA”
The plate was incubated over night at 37° C. in 5% CO2. […] Luminescence was detected on a luminescence plate reader e.g., a Synergy 2 (BioTek).

T3 sequence (P30988 25-474): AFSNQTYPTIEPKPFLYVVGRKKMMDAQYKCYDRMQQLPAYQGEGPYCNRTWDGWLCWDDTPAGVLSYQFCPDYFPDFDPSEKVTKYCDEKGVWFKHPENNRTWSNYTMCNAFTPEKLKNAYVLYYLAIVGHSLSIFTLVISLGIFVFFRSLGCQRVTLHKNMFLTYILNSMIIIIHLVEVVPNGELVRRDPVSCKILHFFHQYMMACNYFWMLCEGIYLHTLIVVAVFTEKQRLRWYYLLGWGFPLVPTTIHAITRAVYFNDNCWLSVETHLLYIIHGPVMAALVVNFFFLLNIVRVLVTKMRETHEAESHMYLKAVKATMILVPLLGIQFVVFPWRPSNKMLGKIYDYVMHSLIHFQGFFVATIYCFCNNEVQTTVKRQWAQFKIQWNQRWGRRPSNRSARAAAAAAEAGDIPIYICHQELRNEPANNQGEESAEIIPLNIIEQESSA
T3 sequence (O60896 24-148): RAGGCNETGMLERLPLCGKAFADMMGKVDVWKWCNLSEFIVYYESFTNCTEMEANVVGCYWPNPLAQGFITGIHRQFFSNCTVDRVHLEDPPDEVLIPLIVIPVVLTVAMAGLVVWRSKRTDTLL

Substance	EC50 [nM]
Y[Aib]EGTFTSDYSILLEEQAAREFIEWLLAGGPSGGEASHLSTAQTQRLSAELHK([AEEA-AEEA-γGlu-C18 diacid])LATLPRTETGSGSP-NH2 [Compound 74]	0.134
Y[Aib]EGTFTSDYSILLEEQAAREFIEWLLAGGPSGGGGEASHLSTAQTQRLSAELHK([AEEA-AEEA-γGlu-C20 diacid])LATLPRTETGSGSP-NH2 [Compound 96]	0.595

same assay, conditions: method A, absence of HSA; read-out: hAMYR3 Potency, no HSA, EC50

Substance	EC50 [nM]
Y[Aib]EGTFTSDYSILLEEQAAREFIEWLLAGGPSGGEASHLSTAQTQRLSAELHK([AEEA-AEEA-γGlu-C18 diacid])LATLPRTETGSGSP-NH2 [Compound 74]	0.00273
Y[Aib]EGTFTSDYSILLEEQAAREFIEWLLAGGPSGGGGEASHLSTAQTQRLSAELHK([AEEA-AEEA-γGlu-C20 diacid])LATLPRTETGSGSP-NH2 [Compound 96]	0.00373
Y[Aib]EGTFTSDYSILLEEQAAREFIEWLLAGGPSK([AEEA-AEEA-γGlu-C16 diacid])GASELSTAALGRLSAELHRLATLPRTETGSGSP-NH2 [Compound 20]	0.00365
Y[Aib]EGTFTSDYSILLEEQAAREFIEWLLAGGPSK([AEEA-AEEA-γGlu-C18 diacid])GAEASELSTAALGRLSAELHELATLPRTETGSGSP-NH2 [Compound 32]	0.0101
